# In patent US6664083B2, “Methods for racemizing N-acylamino acids and producing optically active amino acids” (Daichel Chemical Industries, Ltd., priority 2000, dated 2003):
# Tested on: N-acylamino acid racemase
# Test: Influence of inhibitors on N-acylamino acid racemase activity
# Assay type: biochemical, Sebekia benihana
# Settings: not given
# Description: (§1) The activity of N-acylamino acid racemase was measured by the following method.
# (§2) To this reaction solution, 50 μl of enzyme solution was added, and the 500 μl of the mixture was allowed to react for 5 minutes (or for several ten minutes if the activity was low) at 30° C., followed by heating at 100° C. for 3 minutes to stop the reaction. Subsequently, 3 U of L-amino acylase were added to the mixture, and incubated for 1 hour at 30° C. The mixture was then heated at 100° C. for 3 minutes to stop the reaction.
# (§3) The amount of L-methionine produced was measured by TNBS method after the reaction was stopped. The enzyme activity was defined as 1 unit (U) when 1 μmole of N-acetyl-L-methionine was produced from N-acetyl-D-methionine in a minute.
# Influence of various enzyme inhibitors on N-acylamino acid racemase was examined in the enzymatic activity assay in which each inhibitor was added to the reaction solution at the final concentration of 1 mM. The mixture was incubated for 10 minutes at 30° C., using the reaction solution without any inhibitors as a control. […] For EDTA, enzyme activity was measured at a final concentration of 5 mM as well as 1 mM.
Compound,NAAR activity inhibited,Relative activity (%)
O=C(O)CI [Monoiodoacetic acid],inhibited,22

# Same assay, conditions: inhibitor 1 mM, 10 minutes at 30° C.; activity in the absence of inhibitors taken as 100
row,Compound,Relative activity (%)
1,O[C@H](CS)[C@H](O)CS (racemic) [dithiothreitol],84
2,"O=C(NNc1ccccc1)NNc1ccccc1 [1,5-Diphenylcarbonohydrazide]",68
3,"c1ccc(-c2ccccn2)nc1 [2,2′-Bipyridyl]",55
4,O=C(O)CN(CCN(CC(=O)O)CC(=O)O)CC(=O)O [EDTA],10
5,NN.O=S(=O)(O)O [Hydrazinium Sulfate],69
6,NO [Hydroxylammonium chloride],88
7,[I-].[K+] [KI],97
8,CCN1C(=O)C=CC1=O [N-ethylmaleimide],96
9,[F-].[Na+] [NaF],94
10,O=C(O)c1cc[c]([Hg][Cl])cc1 [p-chloromercuribenzoic acid],11
11,O=S(=O)(F)Cc1ccccc1 [phenylmethanesulfonyl fluoride],84

# Same assay, conditions: inhibitor 10 mM (table), 10 minutes at 30° C.; activity in the absence of inhibitors taken as 100
row,Compound,Relative activity (%)
1,O=C(O)CN(CCN(CC(=O)O)CC(=O)O)CC(=O)O [EDTA],0

# Same assay, conditions: result in words
row,Compound,NAAR activity inhibited
1,O=C(O)CN(CCN(CC(=O)O)CC(=O)O)CC(=O)O [EDTA],inhibited
2,O=C(O)c1cc[c]([Hg][Cl])cc1 [p-chloromercuribenzoic acid],inhibited

# Tested on: N-acylamino acid racemase
# Test: Substrate specificity of N-acylamino acid racemase (enzyme activity assay, TNBS method)
# Assay type: biochemical, Sebekia benihana
# Settings: substrate 20 mM, 1 mM cobalt chloride, pH 7.5, 30° C.; activity on N-acetyl-D-methionine taken as 100
# Description: The activity of N-acylamino acid racemase was measured by the following method. First, the following reaction solution was prepared. [table] […] Subsequently, 3 U of L-amino acylase were added to the mixture, and incubated for 1 hour at 30° C. The mixture was then heated at 100° C. for 3 minutes to stop the reaction. The amount of L-methionine produced was measured by TNBS method after the reaction was stopped. […] Substrate specificity was determined by measuring enzyme activities according to the above-mentioned enzyme assay, with varying the substrate in the reaction.
row,Compound,Relative activity (%)
1,CC(=O)N[C@H](C(=O)O)C(C)C [N-acctylvaline],146
2,CC(=O)N[C@@H](C)C(=O)O [N-acetylalanine],86
3,CC(=O)N[C@@H](CC(=O)O)C(=O)O [N-acetylaspartic acid],68
4,CC(=O)N[C@@H](CC(C)C)C(=O)O [N-acetylleucine],78
5,CSCC[C@H](NC(C)=O)C(=O)O [N-acetylmethionine],100
6,CC(=O)N[C@@H](Cc1ccccc1)C(=O)O [N-acetylphenylalanine],74
7,CC(=O)N[C@@H](Cc1c[nH]c2ccccc12)C(=O)O [N-acetyltryptophan],69

# Tested on: N-acylamino acid racemase
# Test: Racemization of N-acetyltryptophan by N-acylamino acid racemase, optical purity by chiral HPLC
# Assay type: biochemical, Sebekia benihana
# Settings: 0.5% substrate, 1 U NAAR, pH 6.5, 30° C. overnight
# Description: A reaction solution containing 100 mM potassium phosphate buffer (pH 6.5), 1 U of the N-acylamino acid racemase, and 0.5% N-acetyl-L-tryptophan or N-acetyl-D-tryptophan was incubated at 30° C. overnight. Racemization was verified by measuring optical purity of tryptophan in the reaction solution by HPLC. The optical purity of N-acetyltryptophan was determined as follows. N-acetyltryptophan was extracted from the reaction solution with methyl ethyl ketone. After the solvent was removed, the reaction product was resolved by liquid chromatography using an optical resolution column. The measurement was carried out at room temperature, using CHIRALPAK WH (DAICEL CHEMICAL INDUSTRIES, LTD.) as the optical resolution column, and aqueous solution of 0.25 mM cupric sulfate as eluent (flow rate, 1 ml/min; detection wavelength, 254 nm) to determine the quantity and optical purity. As a result, it was shown that N-acetyltryptophan produced from either N-acetyl-L-tryptophan or N-acetyl-D-tryptophan by the method of the present invention was a racemate with optical purity of nearly 0% ee at the end of the reaction.
row,Compound,optical purity of N-acetyltryptophan at the end of the reaction [% ee]
1,CC(=O)N[C@H](Cc1c[nH]c2ccccc12)C(=O)O [N-acetyl-D-tryptophan],~0
2,CC(=O)N[C@@H](Cc1c[nH]c2ccccc12)C(=O)O [N-acetyl-L-tryptophan],~0

# Tested on: N-acylamino acid racemase
# Test: Influence of metal ions on N-acylamino acid racemase activity
# Assay type: biochemical, Sebekia benihana
# Settings: 1 mM
# Description: as §1, §2, §3
# Influence of various metal ions on N-acylamino acid racemase was examined in the enzymatic activity assay in which cobalt chloride (final concentration 1 mM) to be added was omitted from the reaction solution and instead each ion was added to the reaction at a final concentration of 1 mM. The mixture was incubated for 5 minutes at 30° C., and the amount of L-methionine produced was measured to determine the effect of each metal ion on the N-acylamino acid racemase, using the reaciton solution without any metal ions as a control. The enzyme activities were represented as relative activities, taking the activity in the presence of Co as 100.
row,Compound,effect of metal ion on NAAR activity
1,O.O.O.O.O.O.[Cl-].[Cl-].[Co+2] [CoCl2.6H2O],effect of activation

# Same assay, conditions: metal ion 1 mM instead of cobalt chloride, 5 minutes at 30° C.; activity in the presence of Co taken as 100
row,Compound,Relative activity (%)
1,O.O.[Ba+2].[Cl-].[Cl-] [BaCl2.2H2O],14
2,O.O.[Ca+2].[Cl-].[Cl-] [CaCl2.2H2O],12
3,O.O.O.O.O.O.[Cl-].[Cl-].[Co+2] [CoCl2.6H2O],100
4,O.O.[Cl][Cu][Cl] [CuCl2.2H2O],3
5,[Cl][Fe][Cl] [FeCl2.nH2O],34
6,O.O.O.O.O.O.[Cl-].[Cl-].[Cl-].[Fe+3] [FeCl3.6H2O],6
7,[Cl-].[K+] [KCl],16
8,O.O.O.O.O.O.[Cl-].[Cl-].[Mg+2] [MgCl2.6H2O],27
9,O.O.O.O.[Cl][Mn][Cl] [MnCl2.4H2O],60
10,[Cl-].[Na+] [NaCl],17
11,O.O.O.O.O.O.[Cl][Ni][Cl] [NiCl2.6H2O],37
12,O.O.[Cl][Sn][Cl] [SnCl2.2H2O],9
13,[Cl-].[Cl-].[Zn+2] [ZnCl2],20
14,Al2(SO4)3.14˜18H2O,3
